Assay results taken from patent US10888550B2, “Pyrazole derivatives as MALT1 inhibitors” (Janssen Pharmaceutica NV, priority 2018, dated 2021).

How the values were obtained:
[1] = biological target: full-length MALT1 protein (Strep-MALT1(1-824)-His) (Homo sapiens (Human), UniProt Q9UDY8); assay: MALT1 Biochemical Protease Assay; settings: read-out: MALT1_Biochemical activity (Ac-LRSR-amc) IC50; 10 nM FL MALT1, 200 μM Ac-LRSR-AMC, 50 min pre-incubation, 4 h at RT
Description: From this an ICso value (inhibitory concentration causing 50% inhibition) can be obtained.

[2] = system: IL6 secretion, OCI-LY3 cells; assay: Human IL6 Mesoscale assay (OCI-LY3); assay type: cell-based; settings: 24 h incubation
[3] = system: IL10 secretion, OCI-LY3 cells; assay: Human IL10 Mesoscale assay (OCI-LY3); assay type: cell-based; settings: 24 h incubation

full-length MALT1 protein (Strep-MALT1(1-824)-His), sequence (Q9UDY8 whole entry): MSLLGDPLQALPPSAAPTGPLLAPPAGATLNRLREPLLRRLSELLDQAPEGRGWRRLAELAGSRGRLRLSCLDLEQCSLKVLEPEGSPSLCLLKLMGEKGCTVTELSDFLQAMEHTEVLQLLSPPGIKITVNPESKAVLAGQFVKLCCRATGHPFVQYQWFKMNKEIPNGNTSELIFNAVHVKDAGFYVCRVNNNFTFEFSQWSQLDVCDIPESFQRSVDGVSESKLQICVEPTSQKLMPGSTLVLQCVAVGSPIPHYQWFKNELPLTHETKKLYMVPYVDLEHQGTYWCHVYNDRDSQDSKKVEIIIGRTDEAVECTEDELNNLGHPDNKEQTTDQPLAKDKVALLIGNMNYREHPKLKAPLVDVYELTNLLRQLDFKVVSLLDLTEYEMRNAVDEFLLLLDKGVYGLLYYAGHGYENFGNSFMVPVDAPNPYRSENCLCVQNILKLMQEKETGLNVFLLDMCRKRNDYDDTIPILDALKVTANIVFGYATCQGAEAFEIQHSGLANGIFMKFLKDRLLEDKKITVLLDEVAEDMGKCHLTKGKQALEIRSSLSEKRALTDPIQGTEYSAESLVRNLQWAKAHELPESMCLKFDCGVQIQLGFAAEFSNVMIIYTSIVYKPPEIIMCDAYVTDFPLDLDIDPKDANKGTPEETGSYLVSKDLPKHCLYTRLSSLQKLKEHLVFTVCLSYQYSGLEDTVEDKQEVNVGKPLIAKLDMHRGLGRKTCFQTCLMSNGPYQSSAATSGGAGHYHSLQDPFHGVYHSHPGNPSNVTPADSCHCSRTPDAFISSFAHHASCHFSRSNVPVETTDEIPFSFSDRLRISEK

SMILES | IC50 [1] | IC50 [2] | IC50 [3]
CO[C@@H](C)c1ncc(NC(=O)c2cnn(-c3ccc(Cl)n4nccc34)c2C(F)(F)F)cc1Cl (single isomer, unassigned) [Cpd 27, (*S)—N-(5-chloro-6-(1-methoxyethyl)pyridin-3-yl)-1-(7-chloropyrazolo[1,5-a]pyridin-4-yl)-5-(trifluoromethyl)-1H-pyrazole-4-carboxamide] | 1020 nM | – | –
CO[C@H](C)c1ncc(NC(=O)c2cnn(-c3ccc(Cl)n4nccc34)c2C(F)(F)F)cc1Cl (single isomer, unassigned) [Cpd 28, (*R)—N-(5-chloro-6-(1-methoxyethyl)pyridin-3-yl)-1-(7-chloropyrazolo[1,5-a]pyridin-4-yl)-5-(trifluoromethyl)-1H-pyrazole-4-carboxamide] | 1320 nM | – | –
CS(=N)(=O)c1ncc(NC(=O)c2cnn(-c3ccc(F)c4nccn34)c2C(F)(F)F)cc1C(F)(F)F (stereo not shown) [Cpd 31, 1-(8-fluoroimidazo[1,2-a]pyridin-5-yl)-N-(6-(S-methylsulfonimidoyl)-5-(trifluoromethyl)pyridin-3-yl)-5-(trifluoromethyl)-1H-pyrazole-4-carboxamide] | 3160 nM | – | –
CS(C)(=O)=Nc1ncc(NC(=O)c2cnn(-c3ccc(F)c4nccn34)c2C(F)(F)F)cc1Cl [Cpd 33, N-(5-chloro-6-((dimethyl(oxo)-λ^6-sulfanylidene)amino)pyridin-3-yl)-1-(8-fluoroimidazo[1,2-a]pyridin-5-yl)-5-(trifluoromethyl)-1H-pyrazole-4-carboxamide] | 980 nM | – | –
CS(C)(=O)=Nc1ncc(NC(=O)c2cnn(-c3ccc(F)c4nccn34)c2C(F)(F)F)cc1F [Cpd 32, N-(6-((dimethyl(oxo)-λ^6-sulfanylidene)amino)-5-fluoropyridin-3-yl)-1-(8-fluoroimidazo[1,2-a]pyridin-5-yl)-5-(trifluoromethyl)-1H-pyrazole-4-carboxamide] | 8130 nM | – | –
CO[C@H](C)c1ncc(NC(=O)c2cnn(-c3ccc(C#N)n4nccc34)c2C(F)(F)F)cc1Cl (single isomer, unassigned) [Cpd 26, (*R)—N-(5-chloro-6-(1-methoxyethyl)pyridin-3-yl)-1-(7-cyanopyrazolo[1,5-a]pyridin-4-yl)-5-(trifluoromethyl)-1H-pyrazole-4-carboxamide] | 562 nM | – | –
CO[C@H](C)c1ncc(NC(=O)c2cnn(-c3ccc(F)c4nccn34)c2C(F)(F)F)cc1Cl (single isomer, unassigned) [Cpd 19, (*R)—N-(5-chloro-6-(1-methoxyethyl)pyridin-3-yl)-1-(8-fluoroimidazo[1,2-a]pyridin-5-yl)-5-(trifluoromethyl)-1H-pyrazole-4-carboxamide] | 2820 nM | – | –
CO[C@@H](C)c1ncc(NC(=O)c2cnn(-c3ccc(F)c4nccn34)c2C(F)(F)F)cc1Cl (single isomer, unassigned) [Cpd 17, (*S)—N-(5-chloro-6-(1-methoxyethyl)pyridin-3-yl)-1-(8-fluoroimidazo[1,2-a]pyridin-5-yl)-5-(trifluoromethyl)-1H-pyrazole-4-carboxamide] | 2340 nM | – | –
O=C(Nc1cnc([C@H]2CCCO2)c(Cl)c1)c1cnn(-c2ccc(Cl)n3nccc23)c1C(F)(F)F (single isomer, unassigned) [Cpd 22, (*R)—N-(5-chloro-6-(tetrahydrofuran-2-yl)pyridin-3-yl)-1-(7-chloropyrazolo[1,5-a]pyridin-4-yl)-5-(trifluoromethyl)-1H-pyrazole-4-carboxamide] | 977 nM | – | –
O=C(Nc1cnc([C@H]2CCCO2)c(Cl)c1)c1cnn(-c2ccc(Cl)c3nccn23)c1C(F)(F)F (single isomer, unassigned) [Cpd 18, (*R)—N-(5-chloro-6-(tetrahydrofuran-2-yl)pyridin-3-yl)-1-(8-chloroimidazo[1,2-a]pyridin-5-yl)-5-(trifluoromethyl)-1H-pyrazole-4-carboxamide] | 2190 nM | – | –
CS(C)(=O)=Nc1ncc(NC(=O)c2cnn(-c3ccc(F)c4nccn34)c2C(F)(F)F)cc1C(F)(F)F [Cpd 30, N-(6-((dimethyl(oxo)-λ^6-sulfanylidene)amino)-5-(trifluoromethyl)pyridin-3-yl)-1-(8-fluoroimidazo[1,2-a]pyridin-5-yl)-5-(trifluoromethyl)-1H-pyrazole-4-carboxamide] | 830 nM | – | –
Cc1cc(NC(=O)c2cnn(-c3ccc(F)c4nccn34)c2C(F)(F)F)cnc1N=S(C)(C)=O [Cpd 29, N-(6-((dimethyl(oxo)-λ^6-sulfanylidene)amino)-5-methylpyridin-3-yl)-1-(8-fluoroimidazo[1,2-a]pyridin-5-yl)-5-(trifluoromethyl)-1H-pyrazole-4-carboxamide] | 6000 nM | – | –

The next compounds have a lower IC50 [1] than those just listed; values first:

IC50 [1] | IC50 [2] | IC50 [3] | SMILES
81 nM | 240 nM | 129 nM | Cc1cnc(-c2ncc(NC(=O)c3cnn(-c4ccc(F)c5nccn45)c3C(F)(F)F)cc2Cl)o1 [Cpd 9, N-(5-chloro-6-(5-methyloxazol-2-yl)pyridin-3-yl)-1-(8-fluoroimidazo[1,2-a]pyridin-5-yl)-5-(trifluoromethyl)-1H-pyrazole-4-carboxamide]
50 nM | 47 nM | 31 nM | O=C(Nc1cnc(-n2nccn2)c(C(F)(F)F)c1)c1cnn(-c2ccc(F)c3nccn23)c1C(F)(F)F [Cpd 4, N-(6-(2H-1,2,3-triazol-2-yl)-5-(trifluoromethyl)pyridin-3-yl)-1-(8-fluoroimidazo[1,2-a]pyridin-5-yl)-5-(trifluoromethyl)-1H-pyrazole-4-carboxamide]
457 nM | – | – | CO[C@@H](C)c1ncc(NC(=O)c2cnn(-c3ccc(C#N)n4nccc34)c2C(F)(F)F)cc1Cl (single isomer, unassigned) [Cpd 25, (*S)—N-(5-chloro-6-(1-methoxyethyl)pyridin-3-yl)-1-(7-cyanopyrazolo[1,5-a]pyridin-4-yl)-5-(trifluoromethyl)-1H-pyrazole-4-carboxamide]
33 nM | 47 nM | 31 nM | O=C(Nc1cnc(-n2nccn2)c(Cl)c1)c1cnn(-c2ccc(Cl)n3nccc23)c1C(F)(F)F [Cpd 15, N-(5-chloro-6-(2H-1,2,3-triazol-2-yl)pyridin-3-yl)-1-(7-chloropyrazolo[1,5-a]pyridin-4-yl)-5-(trifluoromethyl)-1H-pyrazole-4-carboxamide]
355 nM | – | – | O=C(Nc1cnc([C@@H]2CCCO2)c(Cl)c1)c1cnn(-c2ccc(Cl)c3nccn23)c1C(F)(F)F (single isomer, unassigned) [Cpd 20, (*S)—N-(5-chloro-6-(tetrahydrofuran-2-yl)pyridin-3-yl)-1-(8-chloroimidazo[1,2-a]pyridin-5-yl)-5-(trifluoromethyl)-1H-pyrazole-4-carboxamide]
25 nM | 42 nM | 41 nM | NC(=O)c1ccc(-n2ncc(C(=O)Nc3cnc(-n4nccn4)c(Cl)c3)c2C(F)(F)F)c2ccnn12 [Cpd 16, 4-(4-((5-chloro-6-(2H-1,2,3-triazol-2-yl)pyridin-3-yl)carbamoyl)-5-(trifluoromethyl)-1H-pyrazol-1-yl)pyrazolo[1,5-a]pyridine-7-carboxamide]
251 nM | – | – | N#Cc1ccc(-n2ncc(C(=O)Nc3cnc([C@H]4CCCO4)c(Cl)c3)c2C(F)(F)F)c2ccnn12 (single isomer, unassigned) [Cpd 24, (*R)—N-(5-chloro-6-(tetrahydrofuran-2-yl)pyridin-3-yl)-1-(7-cyanopyrazolo[1,5-a]pyridin-4-yl)-5-(trifluoromethyl)-1H-pyrazole-4-carboxamide]
19 nM | 22 nM | 19 nM | N#Cc1ccc(-n2ncc(C(=O)Nc3cnc(-n4nccn4)c(Cl)c3)c2C(F)(F)F)c2ccnn12 [Cpd 13, N-(5-chloro-6-(2H-1,2,3-triazol-2-yl)pyridin-3-yl)-1-(7-cyanopyrazolo[1,5-a]pyridin-4-yl)-5-(trifluoromethyl)-1H-pyrazole-4-carboxamide]
49 nM | 91 nM | 87 nM | NC(=O)c1ccc(-n2ncc(C(=O)Nc3cnc(-n4nccn4)c(Cl)c3)c2C(F)(F)F)n2ccnc12 [Cpd 1, 5-(4-((5-chloro-6-(2H-1,2,3-triazol-2-yl)pyridin-3-yl)carbamoyl)-5-(trifluoromethyl)-1H-pyrazol-1-yl)imidazo[1,2-a]pyridine-8-carboxamide]
219 nM | 288 nM | 155 nM | NC(=O)c1ccc(-n2ncc(C(=O)Nc3ccnc(C(F)(F)F)c3)c2C(F)(F)F)c2ccnn12 [Cpd 12, 4-(5-(trifluoromethyl)-4-((2-(trifluoromethyl)pyridin-4-yl)carbamoyl)-1H-pyrazol-1-yl)pyrazolo[1,5-a]pyridine-7-carboxamide]
26 nM | 123 nM | 23 nM | Cc1coc(-c2ncc(NC(=O)c3cnn(-c4ccc(F)c5nccn45)c3C(F)(F)F)cc2Cl)n1 [Cpd 10, N-(5-chloro-6-(4-methyloxazol-2-yl)pyridin-3-yl)-1-(8-fluoroimidazo[1,2-a]pyridin-5-yl)-5-(trifluoromethyl)-1H-pyrazole-4-carboxamide]
36 nM | 200 nM | 115 nM | N#Cc1ccc(-n2ncc(C(=O)Nc3cnc([C@@H]4CCCO4)c(Cl)c3)c2C(F)(F)F)c2ccnn12 (single isomer, unassigned) [Cpd 23, (*S)—N-(5-chloro-6-(tetrahydrofuran-2-yl)pyridin-3-yl)-1-(7-cyanopyrazolo[1,5-a]pyridin-4-yl)-5-(trifluoromethyl)-1H-pyrazole-4-carboxamide]
457 nM | – | – | CS(=O)(=O)c1c(C(=O)Nc2cnc(-n3nccn3)c(Cl)c2)cnn1-c1ccc(F)c2nccn12 [Cpd 8, N-(5-chloro-6-(2H-1,2,3-triazol-2-yl)pyridin-3-yl)-1-(8-fluoroimidazo[1,2-a]pyridin-5-yl)-5-(methylsulfonyl)-1H-pyrazole-4-carboxamide]
